Results reported in patent publication US20240116985A1, “STAPLED PEPTIDES AND METHODS THEREOF” (priority 2020, published 2024).
≈ marks a conversion by molar mass, not a printed value. Like-named read-outs stand apart in the source and are kept apart here.

Legend:
[1] = biological target: T1, full-length beta-Catenin (Uniprot ID P35222) (Homo sapiens, UniProt P35222); test: Fluorescence polarization IC50 (beta-catenin / 5FAM-TCF4 10-53 competition); type: binding
T1 construct: 10 nM full-length beta-Catenin (Uniprot ID P35222)
T1 sequence (P35222 1-781): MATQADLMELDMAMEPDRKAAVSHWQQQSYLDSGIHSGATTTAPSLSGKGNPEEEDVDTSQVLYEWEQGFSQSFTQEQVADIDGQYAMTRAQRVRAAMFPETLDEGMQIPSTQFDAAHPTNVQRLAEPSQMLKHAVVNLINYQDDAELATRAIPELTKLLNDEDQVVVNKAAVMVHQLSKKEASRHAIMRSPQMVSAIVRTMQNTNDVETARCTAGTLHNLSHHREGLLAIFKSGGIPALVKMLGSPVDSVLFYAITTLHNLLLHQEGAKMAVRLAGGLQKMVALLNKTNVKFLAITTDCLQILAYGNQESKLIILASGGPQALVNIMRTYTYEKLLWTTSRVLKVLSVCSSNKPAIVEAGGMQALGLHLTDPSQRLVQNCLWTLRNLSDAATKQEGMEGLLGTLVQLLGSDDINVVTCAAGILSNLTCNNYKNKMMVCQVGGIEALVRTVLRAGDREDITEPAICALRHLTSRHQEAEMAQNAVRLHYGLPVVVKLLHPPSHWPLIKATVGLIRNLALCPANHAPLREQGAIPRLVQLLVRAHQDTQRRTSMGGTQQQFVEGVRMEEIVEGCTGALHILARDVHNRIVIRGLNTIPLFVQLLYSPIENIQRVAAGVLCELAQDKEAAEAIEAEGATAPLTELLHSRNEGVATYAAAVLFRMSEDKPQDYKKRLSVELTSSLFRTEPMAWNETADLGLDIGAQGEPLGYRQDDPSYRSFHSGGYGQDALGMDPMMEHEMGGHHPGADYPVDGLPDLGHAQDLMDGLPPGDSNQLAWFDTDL

Solubility in PBS = type: physicochemical
Procedure, shortened: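 PBS sample ultracentrifuged; supernatant run on HPLC vs. 50 μM peptide in DMSO standard. Solubility = (PBS peak area / DMSO peak area) × 50 uM.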

[2] = biological target: T2, beta-catenin/TCF4 engagement (Homo sapiens, UniProt P35222); test: Nano-BRET target engagement assay (B-cat-Halo & TCF4-Luc in HEK293 cells); type: cell-based
T2 construct: expressed in transfected cells; host or cells: HEK293
T2 sequence (P35222 1-781): T1 sequence (P35222 1-781)

[3] = fluorescence polarization, read-out: beta-Catenin FP IC50
[4] = absolute IC50, read-out: NanoBRET Abs IC50

Structure (SMILES)	IC50 [1, 3] [nM]	Solubility (Solubility in PBS) [µM]	IC50 [2, 4] [nM]	Solubility (Solubility in PBS; Solubility (uM)) [µM]	IC50 ([1]; beta-Catenin FP IC50, fluorescence polarization) [nM]	IC50 ([2]; NanoBRET Abs IC50, absolute IC50) [nM]
CC(=O)N1CCC[C@]12CC=CCCCC1(CCCC=CCCCOC(=O)N3CC[C@@](C(=O)N[C@@H](Cc4ccccc4Cl)C(=O)N[C@@H](Cc4csc5ccccc45)C(=O)N[C@@H](CO)C(N)=O)(C3)NC(=O)[C@H]([C@@H](C)O)NC(=O)[C@H](Cc3ccccc3)NC(=O)[C@H](CC(C)C)NC(=O)[C@H](C)NC(=O)[C@H](CC(=O)O)NC(=O)[C@H](CC(=O)O)NC1=O)NC(=O)[C@H](CC1CCCCC1)NC(=O)[C@H](CC(=O)O)NC2=O (stereo partly drawn) [I-1151, Ac-PL3-Asp-Cha-B5-Asp-Asp-Ala-Leu-Phe-Thr-PyrS2-2C1F-BztA-Ser-NH2]	30	10 (≈ 19.6 µg/mL)	25300			
CC(=O)N1CCC[C@]12CC=CCCCC1(CCCC=CCCCOC(=O)N3CC[C@@](C(=O)N[C@@H](Cc4ccccc4Cl)C(=O)N[C@@H](Cc4csc5ccccc45)C(=O)N[C@H](C(N)=O)[C@@H](C)O)(C3)NC(=O)[C@H](CCCCNC(C)C)NC(=O)[C@H](Cc3ccccc3)NC(=O)[C@H](C)NC(=O)[C@H](C)NC(=O)[C@H](CCC(=O)O)NC(=O)[C@H](CC(=O)O)NC1=O)NC(=O)[C@H](CC(C)(C)C)NC(=O)[C@H](CC(=O)O)NC2=O (stereo partly drawn) [I-1282, Ac-PL3-Asp-Npg-B5-Asp-Glu-Ala-Ala-Phe-iPrLys-PyrS2-2C1F-BztA-Thr-NH2]	34		43100	24 (≈ 47.8 µg/mL)		
CC(=O)N1CCC[C@]12CC=CCCCC1(CCCC=CCCCOC(=O)N3CC[C@@](C(=O)N[C@@H](Cc4ccsc4)C(=O)N[C@@H](Cc4csc5ccccc45)C(=O)N[C@H](CO)[C@@H](C)O)(C3)NC(=O)[C@H](CCO)NC(=O)[C@H](Cc3ccccc3)NC(=O)[C@H](C)NC(=O)[C@H](C)NC(=O)[C@H](CC(=O)O)NC(=O)[C@H](CC(=O)O)NC1=O)NC(=O)[C@H](CC(C)(C)C)NC(=O)[C@H](CC(=O)O)NC2=O (stereo partly drawn) [I-1305, Ac-PL3-Asp-Npg-B5-Asp-Asp-Ala-Ala-Phe-Hse-PyrS2-3Thi-BztA-Thro1]	6		9700	49 (≈ 91.4 µg/mL)		
CC(=O)N1CCC[C@]12CC=CCCCC1(CCCC=CCCCOC(=O)N3CC[C@@](C(=O)N[C@@H](Cc4ccccc4Cl)C(=O)N[C@@H](Cc4csc5ccccc45)C(=O)N[C@@H](CCC(N)=O)C(N)=O)(C3)NC(=O)[C@H](Cc3ccccc3C(F)(F)F)NC(=O)[C@H](Cc3ccccc3)NC(=O)[C@H](C)NC(=O)[C@H](C)NC(=O)[C@H](CC(=O)O)NC(=O)[C@H](CC(=O)O)NC1=O)NC(=O)[C@H](CC(C)(C)C)NC(=O)[C@H](CC(=O)O)NC2=O (stereo partly drawn) [I-1367, Ac-PL3-Asp-Npg-B5-Asp-Asp-Ala-Ala-Phe-2F3MeF-PyrS2-2C1F-BztA-Gln-NH2]	31	10 (≈ 20.5 µg/mL)	7800			
CC(=O)N1CCC[C@]12CC=CCCCC1(CCCC=CCCCOC(=O)N3CC[C@@](C(=O)N[C@@H](Cc4ccsc4)C(=O)N[C@@H](Cc4csc5ccccc45)C(=O)N[C@H](CO)[C@@H](C)O)(C3)NC(=O)[C@H](Cc3ccc(C(F)(F)F)cc3)NC(=O)[C@H](Cc3ccccc3)NC(=O)[C@H](C)NC(=O)[C@H](C)NC(=O)[C@H](CC(=O)O)NC(=O)[C@H](CC(=O)O)NC1=O)NC(=O)[C@H](CC(C)(C)C)NC(=O)[C@H](CC(=O)O)NC2=O (stereo partly drawn) [I-1372, Ac-PL3-Asp-Npg-B5-Asp-Asp-Ala-Ala-Phe-4F3MeF-PyrS2-3Thi-BztA-Thro1]	29	10 (≈ 19.8 µg/mL)	10200			
CC(=O)N1CCC[C@]12CC=CCCCC1(CCCC=CCCCOC(=O)N3CC[C@@](C(=O)N[C@@H](Cc4ccsc4)C(=O)N[C@@H](Cc4csc5ccccc45)C(=O)N[C@H](CO)[C@@H](C)O)(C3)NC(=O)[C@H](Cc3ccccc3)NC(=O)[C@H](Cc3ccccc3)NC(=O)[C@H](C)NC(=O)[C@H](C)NC(=O)[C@H](CC(=O)O)NC(=O)[C@H](CC(=O)O)NC1=O)NC(=O)[C@H](CC(C)(C)C)NC(=O)[C@H](CC(=O)O)NC2=O (stereo partly drawn) [I-1303, Ac-PL3-Asp-Npg-B5-Asp-Asp-Ala-Ala-Phe-Phe-PyrS2-3Thi-BztA-Thro1]	86		9100	28 (≈ 53.5 µg/mL)		
CC(=O)N1CCC[C@]12CC=CCCCC1(CCCC=CCCCOC(=O)N3CC[C@@](C(=O)N[C@@H](Cc4ccccc4Cl)C(=O)N[C@@H](Cc4csc5ccccc45)C(=O)N[C@@H](CC(C)C)C(N)=O)(C3)NC(=O)[C@H](CCCCNC(C)C)NC(=O)[C@H](Cc3ccccc3)NC(=O)[C@H](C)NC(=O)[C@H](C)NC(=O)[C@H](CC(=O)O)NC(=O)[C@H](CC(=O)O)NC1=O)NC(=O)[C@H](CC(C)(C)C)NC(=O)[C@H](CC(=O)O)NC2=O (stereo partly drawn) [I-1280, Ac-PL3-Asp-Npg-B5-Asp-Asp-Ala-Ala-Phe-iPrLys-PyrS2-2C1F-BztA-Leu-NH2]	22	10 (≈ 19.9 µg/mL)	24700			
CC(=O)N1CCC[C@]12CC=CCCCC1(CCCC=CCCCOC(=O)N3CC[C@@](C(=O)N[C@@H](Cc4ccsc4)C(=O)N[C@@H](Cc4csc5ccccc45)C(=O)N[C@H](CO)[C@@H](C)O)(C3)NC(=O)[C@H](Cc3cccc(C(F)(F)F)c3)NC(=O)[C@H](Cc3ccccc3)NC(=O)[C@H](C)NC(=O)[C@H](C)NC(=O)[C@H](CC(=O)O)NC(=O)[C@H](CC(=O)O)NC1=O)NC(=O)[C@H](CC(C)(C)C)NC(=O)[C@H](CC(=O)O)NC2=O (stereo partly drawn) [I-1371, Ac-PL3-Asp-Npg-B5-Asp-Asp-Ala-Ala-Phe-3F3MeF-PyrS2-3Thi-BztA-Thro1]	22	10 (≈ 19.8 µg/mL)	10900			
CC(=O)N1CCC[C@]12CC=CCCCC1(CCCC=CCCCOC(=O)N3CC[C@@](C(=O)N[C@@H](Cc4ccccc4)C(=O)N[C@@H](Cc4csc5ccccc45)C(=O)N[C@@H](CO)C(N)=O)(C3)NC(=O)[C@H]([C@@H](C)O)NC(=O)[C@H](Cc3ccccc3)NC(=O)[C@H](C)NC(=O)[C@H](CC(C)C)NC(=O)[C@H]([C@@H](C)O)NC(=O)[C@H](CC(=O)O)NC1=O)NC(=O)[C@H](CC(C)(C)C)NC(=O)[C@H](CC(=O)O)NC2=O (stereo partly drawn) [I-1264, Ac-PL3-Asp-Npg-B5-Asp-Thr-Leu-Ala-Phe-Thr-PyrS2-Phe-BztA-Ser-NH2]		10 (≈ 18.9 µg/mL)			157	> 20000
CC(=O)N1CCC[C@]12CC=CCCCC1(CCCC=CCCCCCC[C@@](C)(C(=O)N[C@@H](Cc3ccccc3Cl)C(=O)N[C@@H](Cc3csc4ccccc34)C(=O)N[C@H](CO)[C@@H](C)O)NC(=O)[C@H]([C@@H](C)O)NC(=O)[C@H](Cc3ccccc3)NC(=O)[C@H](C)NC(=O)[C@H](C)NC(=O)[C@H](CC(=O)O)NC(=O)[C@H](CC(=O)O)NC1=O)NC(=O)[C@H](CC(C)(C)C)NC(=O)[C@H](CC(=O)O)NC2=O (stereo partly drawn) [I-1308, Ac-PL3-Asp-Npg-B5-Asp-Asp-Ala-Ala-Phe-Thr-S8-2C1F-BztA-Thro1]	25		11900	47 (≈ 87 µg/mL)		
CC(=O)N1CCC[C@]12CC=CCCCC1(CCCC=CCCCOC(=O)N3CC[C@@](C(=O)N[C@@H](Cc4ccsc4)C(=O)N[C@@H](Cc4csc5ccccc45)C(=O)N[C@H](CO)[C@@H](C)O)(C3)NC(=O)[C@H](CC(C)C)NC(=O)[C@H](Cc3ccccc3)NC(=O)[C@H](C)NC(=O)[C@H](C)NC(=O)[C@H](CC(=O)O)NC(=O)[C@H](CC(=O)O)NC1=O)NC(=O)[C@H](CC(C)(C)C)NC(=O)[C@H](CC(N)=O)NC2=O (stereo partly drawn) [I-1304, Ac-PL3-Asn-Npg-B5-Asp-Asp-Ala-Ala-Phe-Leu-PyrS2-3Thi-BztA-Thro1]	31	10 (≈ 18.8 µg/mL)	33600			
